Measured values as given in ChEMBL document CHEMBL3272024, “(Acylaryloxy)acetic acid diuretics. 1. (2-Alkyl- and 2,2-dialkyl-1-oxo-5-indanyloxy)acetic acids” (J Med Chem, 1977).

Legend:
Pan troglodytes [1] = experiment: Natriuretic activity in chimpanzee assessed as change sodium level in urine measured per min at 5 mg/kg, po; assay type: functional
Pan troglodytes [2] = experiment: Ratio of change in urate excretion to change in inulin excretion in chimpanzee in urine at 5 mg/kg, po; assay type: functional
Rattus norvegicus = experiment: Natriuretic activity in po dosed Charles River rat assessed as sodium level in urine per cage collected 0.5 hrs interval relative to 2-(3,6,7-trimethyl-1-oxo-2,3-dihydro-1H-inden-5-yloxy)acetic acid; assay type: functional
[3] = Acute toxicity in iv dosed mouse; assay type: organism-based; conditions: in vivo
Canis familiaris [4] = experiment: Diuretic activity in dog assessed as urine volume collected for 2 hrs at 5 mg/kg, iv over a period of 5 mins (reference value: 1 to 2 mL); assay type: functional, Canis lupus familiaris
Canis familiaris [5] = experiment: Diuretic activity in dog assessed as chloride level in urine collected for 2 hrs at 5 mg/kg, iv over a period of 5 mins (reference value: 1 to 10 microEq); assay type: functional, Canis lupus familiaris
Canis familiaris [6] = experiment: Diuretic activity in dog assessed as potassium level in urine collected for 2 hrs at 5 mg/kg, iv over a period of 5 mins (reference value: 5 to 30 microEq); assay type: functional, Canis lupus familiaris
Canis familiaris [7] = experiment: Diuretic activity in dog assessed as sodium level in urine collected for 2 hrs at 5 mg/kg, iv over a period of 5 mins (reference value: 5 to 30 microEq); assay type: functional, Canis lupus familiaris
Canis familiaris [8] = experiment: Diuretic activity in dog assessed as sodium level in urine collected for 2 hrs at 1.5 mg/kg, iv over a period of 5 mins (reference value: 29 microEq); assay type: functional, Canis lupus familiaris
Canis familiaris [9] = experiment: Diuretic activity in dog assessed as urine volume collected for 2 hrs at 1.5 mg/kg, iv over a period of 5 mins (reference value: 1 mL); assay type: functional, Canis lupus familiaris
Canis familiaris [10] = experiment: Diuretic activity in dog assessed as chloride level in urine collected for 2 hrs at 1.5 mg/kg, iv over a period of 5 mins (reference value: 1 microEq); assay type: functional, Canis lupus familiaris
Canis familiaris [11] = experiment: Diuretic activity in dog assessed as potassium level in urine collected for 2 hrs at 1.5 mg/kg, iv over a period of 5 mins (reference value: 18 microEq); assay type: functional, Canis lupus familiaris

| Structure (SMILES) | Activity (Pan troglodytes [1]) | Ratio (Pan troglodytes [2]) | other results |
| --- | --- | --- | --- |
| CCC1(C2CCCC2)Cc2cc(OCC(=O)O)c(Cl)c(Cl)c2C1=O (stereo unspecified) | 231 uEq | 0.12 |  |
| CC1(Cc2ccccc2)Cc2cc(OCC(=O)O)c(Cl)c(Cl)c2C1=O (stereo unspecified) | 251 uEq | 0.18 |  |
| CC1Cc2cc(OCC(=O)O)c(Cl)c(Cl)c2C1=O (stereo unspecified) |  |  | Ratio (Rattus norvegicus): 1; LD50 [3]: 354 mg/kg |
| CCC1Cc2cc(OCC(=O)O)c(Cl)c(Cl)c2C1=O (stereo unspecified) | 427 uEq | 0.09 | Ratio (Rattus norvegicus): 2.8; LD50 [3]: 245 mg/kg |
| CCCC1Cc2cc(OCC(=O)O)c(Cl)c(Cl)c2C1=O (stereo unspecified) |  | 0.19 |  |
| CC(C)C1Cc2cc(OCC(=O)O)c(Cl)c(Cl)c2C1=O (stereo unspecified) | 649 uEq | 0.18 | Ratio (Rattus norvegicus): 3.2; Activity (Canis familiaris [4]): 4 mL; Activity (Canis familiaris [5]): 330 uEq; Activity (Canis familiaris [6]): 44 uEq; LD50 [3]: 505 mg/kg; Activity (Canis familiaris [7]): 281 uEq |
| Cc1c(OCC(=O)O)cc2c(c1Cl)C(=O)C(C(C)C)C2 (stereo unspecified) | 185 uEq | 0.07 | Activity (Canis familiaris [4]): 3 mL; Activity (Canis familiaris [5]): 204 uEq; Activity (Canis familiaris [6]): 50 uEq; Activity (Canis familiaris [7]): 218 uEq |
| Cc1c(OCC(=O)O)cc2c(c1C)C(=O)C(C(C)C)C2 (stereo unspecified) | 153 uEq | 0.15 | Activity (Canis familiaris [4]): 2 mL; Activity (Canis familiaris [5]): 100 uEq; Activity (Canis familiaris [6]): 15 uEq; Activity (Canis familiaris [7]): 154 uEq |
| CCCCC1Cc2cc(OCC(=O)O)c(Cl)c(Cl)c2C1=O (stereo unspecified) | 126 uEq | 0.11 |  |
| CC(C)(C)C1Cc2cc(OCC(=O)O)c(Cl)c(Cl)c2C1=O (stereo unspecified) | 106 uEq | 0 |  |
| Cc1c(OCC(=O)O)cc2c(c1Cl)C(=O)C(C1CCCC1)C2 (stereo unspecified) | 141 uEq | 0.14 |  |
| Cc1c(OCC(=O)O)cc2c(c1C)C(=O)C(C1CCCC1)C2 (stereo unspecified) | 0 uEq | 0.43 |  |
| O=C(O)COc1cc2c(c(Cl)c1Cl)C(=O)C(C1CCCCC1)C2 (stereo unspecified) | 310 uEq | 0.21 |  |
| O=C(O)COc1cc2c(c(Cl)c1Cl)C(=O)C1CCCCC21 (stereo unspecified) | 85 uEq | 0.2 |  |
| CC1C(=O)c2c(cc(OCC(=O)O)c(Cl)c2Cl)C1c1ccccc1 (stereo unspecified) | 64 uEq | 0.12 |  |
| CCC1C(=O)c2c(cc(OCC(=O)O)c(Cl)c2Cl)C1c1ccccc1 (stereo unspecified) | 223 uEq | 0.28 |  |
| CC(C)C1C(=O)c2c(cc(OCC(=O)O)c(Cl)c2Cl)C1c1ccccc1 (stereo unspecified) | 240 uEq | 0.25 |  |
| O=C(O)COc1cc2c(c(Cl)c1Cl)C(=O)C(C1CCCC1)C2c1ccccc1 (stereo unspecified) | 22 uEq | 0.25 |  |
| CCC1C(=O)c2c(cc(OCC(=O)O)c(Cl)c2Cl)C1c1ccccn1 (stereo unspecified) | 0 uEq | 0.08 |  |
| CCC1C(=O)c2c(cc(OCC(=O)O)c(Cl)c2Cl)C1c1cccnc1 (stereo unspecified) | 25 uEq | 0.07 |  |
| CC1(C)Cc2cc(OCC(=O)O)c(Cl)c(Cl)c2C1=O | 535 uEq | 0.04 | Ratio (Rattus norvegicus): 3.9; LD50 [3]: 268 mg/kg |
| CCC1(C)Cc2cc(OCC(=O)O)c(Cl)c(Cl)c2C1=O (stereo unspecified) | 520 uEq | 0.07 | Ratio (Rattus norvegicus): 15; Activity (Canis familiaris [4]): 4 mL; Activity (Canis familiaris [5]): 450 uEq; Activity (Canis familiaris [6]): 62 uEq; LD50 [3]: 239 mg/kg; Activity (Canis familiaris [7]): 360 uEq |
| CCCC1(CC)Cc2cc(OCC(=O)O)c(Cl)c(Cl)c2C1=O (stereo unspecified) | 341 uEq | 0.05 |  |
| Cc1c(OCC(=O)O)cc2c(c1Cl)C(=O)C(C)(C1CCCC1)C2 (stereo unspecified) | 86 uEq | 0.24 |  |
| C=CCC1(C)Cc2cc(OCC(=O)O)c(Cl)c(Cl)c2C1=O (stereo unspecified) | 81 uEq | 0.01 | Activity (Canis familiaris [4]): 4 mL; Activity (Canis familiaris [5]): 171 uEq; Activity (Canis familiaris [6]): 37 uEq; Activity (Canis familiaris [7]): 175 uEq |

| Structure (SMILES) | Activity (Pan troglodytes [1]) | Ratio (Pan troglodytes [2]) | other results |
| --- | --- | --- | --- |
| O=C(O)COc1cc2c(c(Cl)c1Cl)C(=O)C1(CCCCC1)C2 | 489 uEq | 0.05 |  |
| CC12CCCCC1c1cc(OCC(=O)O)c(Cl)c(Cl)c1C2=O (stereo unspecified) | 406 uEq | 0.39 |  |
| CC1(C)C(=O)c2c(cc(OCC(=O)O)c(Cl)c2Cl)C1c1ccccc1 (stereo unspecified) | 22 uEq | 0.1 |  |
| CCC1(C)C(=O)c2c(cc(OCC(=O)O)c(Cl)c2Cl)C1c1ccccc1 (stereo unspecified) | 0 uEq | 0 |  |
| CCC1Cc2cc(OCc3nnn[nH]3)c(Cl)c(Cl)c2C1=O (stereo unspecified) | 28 uEq | 0.11 |  |
| CC(C)C1Cc2cc(OCc3nnn[nH]3)c(Cl)c(Cl)c2C1=O (stereo unspecified) | 42 uEq | 0.07 |  |
| CCC1C(=O)c2c(cc(OCc3nnn[nH]3)c(Cl)c2Cl)C1c1ccccc1 (stereo unspecified) | 5 uEq | 0.06 |  |
| O=C1c2c(cc(OCc3nnn[nH]3)c(Cl)c2Cl)CC1C1CCCC1 (stereo unspecified) | 56 uEq | 0.18 |  |
| CC(C)C1(C)Cc2cc(OCc3nnn[nH]3)c(Cl)c(Cl)c2C1=O (stereo unspecified) | 174 uEq | 0.17 |  |
| O=C1c2c(cc(OCc3nnn[nH]3)c(Cl)c2Cl)CC12CCCCC2 | 0 uEq | 0.02 |  |
| CC1c2cc(OCc3nnn[nH]3)c(Cl)c(Cl)c2C(=O)C1C1CCCC1 (stereo unspecified) | 19 uEq | 0.07 |  |
| O=C1c2c(cc(OCc3nnn[nH]3)c(Cl)c2Cl)CC12CCCC2 | 0 uEq | 0.05 |  |
| O=C(O)COc1cc2c(c(Cl)c1Cl)C(=O)C(CC1CCCC1)C2 (stereo unspecified) | 105 uEq | 0.05 |  |
| O=C(O)COc1cc2c(c(Cl)c1Cl)C(=O)C1(CCCC1)C2 | 624 uEq | 0.11 | Activity (Canis familiaris [4]): 5 mL; Activity (Canis familiaris [5]): 254 uEq; Activity (Canis familiaris [6]): 47 uEq; Activity (Canis familiaris [7]): 330 uEq |
| CC(C)C1(C)Cc2cc(OCC(=O)O)c(Cl)c(Cl)c2C1=O (racemic) |  |  | Ratio (Rattus norvegicus): 53; Activity (Canis familiaris [4]): 2 mL; Activity (Canis familiaris [5]): 218 uEq; Activity (Canis familiaris [6]): 35 uEq; LD50 [3]: 244 mg/kg; Activity (Pan troglodytes [1]; 5 mg/kg): 506 uEq; Activity (Canis familiaris [7]): 185 uEq; Ratio (Pan troglodytes [2]; 5 mg/kg): 0.03 |
| CC1(C2CCCC2)Cc2cc(OCC(=O)O)c(Cl)c(Cl)c2C1=O (racemic) |  |  | Ratio (Rattus norvegicus): 5.4; Activity (Canis familiaris [4]): 4 mL; Activity (Canis familiaris [5]): 478 uEq; Activity (Canis familiaris [6]): 48 uEq; LD50 [3]: 213 mg/kg; Activity (Pan troglodytes [1]; 5 mg/kg): 425 uEq; Activity (Canis familiaris [7]): 454 uEq; Ratio (Pan troglodytes [2]; 5 mg/kg): 0.2 |
| CC(C)C1(C)Cc2cc(OCC(=O)O)c(Cl)c(Cl)c2C1=O (single isomer, unassigned; (+)) |  |  | Activity (Pan troglodytes [1]; 5 mg/kg): 1593 uEq; Ratio (Pan troglodytes [2]; 5 mg/kg): 0.41 |
| O=C(O)COc1cc2c(c(Cl)c1Cl)C(=O)C(C1CCCC1)C2 (single isomer, unassigned; (+)) |  |  | Activity (Pan troglodytes [1]; 5 mg/kg): 300 uEq; Ratio (Pan troglodytes [2]; 5 mg/kg): 0.26 |
| O=C(O)COc1cc2c(c(Cl)c1Cl)C(=O)C(C1CCCC1)C2 (single isomer, unassigned; (-)) |  |  | Activity (Pan troglodytes [1]; 5 mg/kg): 292 uEq; Ratio (Pan troglodytes [2]; 5 mg/kg): 0.1 |
| CC1(C2CCCC2)Cc2cc(OCC(=O)O)c(Cl)c(Cl)c2C1=O (single isomer, unassigned; enantiomer 1) |  |  | Activity (Pan troglodytes [1]; 5 mg/kg): 325 uEq; Ratio (Pan troglodytes [2]; 5 mg/kg): 0.1 |
| CC(C)C1(C)Cc2cc(OCC(=O)O)c(Cl)c(Cl)c2C1=O (single isomer, unassigned; enantiomer 2) |  |  | Activity (Pan troglodytes [1]; 5 mg/kg): 992 uEq; Ratio (Pan troglodytes [2]; 5 mg/kg): 0.06 |
| CC1(C2CCCC2)Cc2cc(OCC(=O)O)c(Cl)c(Cl)c2C1=O (single isomer, unassigned; enantiomer 2) |  |  | Activity (Pan troglodytes [1]; 5 mg/kg): 268 uEq; Ratio (Pan troglodytes [2]; 5 mg/kg): 0.17 |
| O=C(O)COc1cc2c(c(Cl)c1Cl)C(=O)C(C1CCCC1)C2 (stereo in doubt; 4p) |  |  | Ratio (Rattus norvegicus): 1.8; Activity (Canis familiaris [4]): 2 mL; Activity (Canis familiaris [5]): 5 uEq; Activity (Canis familiaris [6]): 37 uEq; LD50 [3]: 222 mg/kg; Activity (Pan troglodytes [1]; 5 mg/kg): 223 uEq; Activity (Canis familiaris [7]): 20 uEq; Ratio (Pan troglodytes [2]; 5 mg/kg): 0.18 |
| NS(=O)(=O)c1cc(C(=O)O)c(NCc2ccco2)cc1Cl [FUROSEMIDE] | 1035 uEq | -0.02 | Activity (Canis familiaris [8]): 960 uEq; Activity (Canis familiaris [9]): 3 mL; Activity (Canis familiaris [10]): 1081 uEq; Activity (Canis familiaris [11]): 141 uEq |
| NS(=O)(=O)c1cc2c(cc1Cl)NCNS2(=O)=O [HYDROCHLOROTHIAZIDE] | 144 uEq |  | Activity (Canis familiaris [4]): 3 mL; Activity (Canis familiaris [5]): 156 uEq; Activity (Canis familiaris [6]): 33 uEq; Activity (Canis familiaris [7]): 166 uEq |
